One assay addresses T1, D-2 receptor (Rattus norvegicus, UniProt P61169).
T1 construct: Striatal tissue was excised, pooled, and homogenized; from tissue; host or cells: rat striatum, washed membrane pellet (male Sprague-Dawley rats, Charles River)
The experiment in a line: Competitive inhibition assay, displacement of 3H-spiperone (D-2 receptor binding). Also on record: species or system rat (male Sprague-Dawley, striatal tissue). The source says:
(§1) Many compounds capable of effecting reproducible physiological changes in neural tissues are believed to operate by binding at one or more receptor sites.
(§2) A methodology for characterization of D-1 and D-2 receptor binding and an interpretation of the data are described by Billard et al., Life Sciences 35, 1885 (1984) in which the binding of the benzazepine (R)-(+)-8-chloro-2,3,4,5-tetrahydro-3-methyl-5-phenyl-1H- 3-benzazepin-7-ol hemimaleate (SCH 23390) to the dopamine D-1 receptor is characterized. A selectivity for D-1 receptor binding as compared to D-2 receptor binding is believed to confer the therapeutic advantage of avoiding troublesome and potentially irreversible neurological side effects associated with D-2 receptor occupancy.
(§3) Tritiated SCH 23390 and tritiated spiperone (a potent D-2 receptor ligand) were obtained as described in the Billard et al. reference supra and serially diluted in 0.05M Tris buffer, pH 7.4, as required. Compounds of this invention were synthesized as disclosed herein and diluted in 0.05M Tris buffer, pH 7.4, as required.
(§4) Male Sprague-Dawley rats (200 to 250 g) from Charles River Breeding Laboratories, Mass. were used to obtain brain tissue. The rats were humanely sacrificed and their brains removed and placed on ice. Striatal tissue was excised, pooled, and homogenized (Brinkman Polytron, 10 sec) in 100 volumes (w/v) of ice cold 50 mM Tris buffer, pH 7.4 (at 25° C.). The homogenate was centrifuged at 20,000 xg for 10 min. The resultant pellet was rehomogenized in Tris buffer and centrifuged again. The final pellet was resuspended in 50 mM Tris buffer pH 7.4 containing 120 mM NaCl, 5 mM KCl, 2 mM CaCl2, and 1 mM MgCl2.
(§5) Polypropylene incubation tubes received 100 μl of the individual test compounds at various concentrations dissolved or suspended in 0.05M Tris, pH 7.4 containing 4 mg/ml methylcellulose, 100 μl of a solution of ^3 H-SCH 23390 in Tris buffer (final reaction mixture concentration=0.3 nM) or 100 μl of a solution of ^3 H-spiperone in Tris buffer (final concentration=0.2 nM) and 800 μl of tissue suspension (ca. 3 mg/assay). Tubes were incubated at 37° C. for 15 minutes and rapidly vacuum filtered through Whatman GF/B filters and rinsed 4 times with 4 ml of ice cold 50 mM Tris buffer, pH 7.4. The filters were transferred to scintillation vials, equilibated with 10 ml of scintillant (Scintosol, Isolab, Inc.) for 16 hours at 25° C. and the radioactivity determined in a liquid scintillation counter. Ki values were determined as described by Billard et al. using the relationship Ki = IC50 /(1+([L]/KD)) wherein IC50 =concentration of test drug necessary to displace 50% of specifically bound ^3 H-Sch 23390, [L]=concentration of radioligand used in the assay, and KD =dissociation constant.

The nature of assay [1]: Conditioned avoidance suppression (CAR) in rats. Particulars: lowest dose significantly (P≤0.05) reducing avoidance responding, rat, in mg/kg. Type of assay: in vivo. The procedure: A series of experiments was carried out to assess the ability of the compounds of this invention to suppress the conditioned avoidance response (CAR) in rats.
Rats were required to jump onto a platform located 6.75 inches (17.15 cm) above the grid floor of an experimental chamber in response to a 5-second tone to avoid a 10-second foot shock (0.6 ma). Each experimental session consisted of 20 such trials presented at 30-second intervals. A correct CAR is scored whenever the rat jumps onto the platform during the tone (prior to foot shock). An escape response is scored when the rat jumps onto the platform during a shock. A response failure is defined as the lack of an escape response during the 10-second shock period.
Groups of 6-8 rats were trained in two consecutive days (total of 40 trials). Rats that reached criterion on day 2 (correct CARs on 16 or more of the 20 trials) were treated with either a test drug or vehicle on day 3. Suppression of CAR was analyzed statistically using Student's t-test comparing the performance of rats on day 2 with their performance following drug on day 3.

For a further assay, the target named is T2, dopamine D-1 receptor (Rattus norvegicus, UniProt P18901).
T2 construct: Striatal tissue was excised, pooled, and homogenized; from tissue; host or cells: rat striatum, washed membrane pellet (male Sprague-Dawley rats, Charles River)
Put plainly: Competitive inhibition assay, displacement of 3H-SCH 23390 (D-1 receptor binding). Also on record: species or system rat (male Sprague-Dawley, striatal tissue).
Description: as §1, §2, §3, §4, §5
In general terms: Displacement assays read how much labelled ligand stays bound in the presence of the test substance.

The nature of assay [2]: Squirrel monkey conditioned avoidance response (CAR) test. Type of assay: in vivo. Particulars: for MEAN (±SE) NUMBER OF […] 6 HOURS POST-TREATMENT: 10 mg/kg p.o., vehicle 59.1 + 0.9 (N=7); for ability to significantly decrease the number of avoidances six hours after dosing (duration): 10 mg/kg po, six hours prior to testing; for ED50: Primates, po. The source says:
This test was designed to measure the effective duration of candidate compounds.
Male or female squirrel monkeys weighing 800-1200 g housed one per cage were utilized. Initially each monkey was taught to terminate a 3 mA electric shock delivered through the grid floor of the test cage and an overlapping tone by depressing a lever in the cage.
In the second phase of the testing, a ten second tone is turned on prior to the shock component. A lever press during the sounding of the tone terminates the tone and prevents the occurrence of the shock component and is denoted as an "avoidance".
The compound testing was commenced after three consecutive days of re-testing. […] The monkey must achieve at least an 85% correct avoidance before drug testing commences. If this minimal avoidance level is achieved, the next day the monkey is orally dosed or injected with the subject compounds in the appropriate vehicle and the number of avoidances are recorded. An animal is defined as having been "affected" by any drug treatment if there is a 50% loss of avoidance behavior relative to the performance of the animal when only the vehicle was injected. The minimal effective dose (MED) is defined as that dose producing an effect in at least 50% of the animals.
A test was conducted to determine the effective duration of a compound of the present invention, 6,7,7a,8,9,13b-hexahydro-3-chloro-2-hydroxy-7-methyl-5H-benzo[ d]naphtho[2,1-b]azepine, denoted as Compound A, compared to a known compound, (d)-7-chloro-8-hydroxy-3-methyl-1-phenyl-2,3,4,5-tetrahydro-1h-3-benzazepine maleate, denoted as Compound B (Sch 23390)
The duration of each compound was determined by administering a 10 mg/kg po dose six hours prior to testing.

[3] abbreviates: rat striatum, 3H-SCH 23390 0.3 nM, pH 7.4, 37° C., 15 min, read-out: Ki, 3H-23390.
[4] abbreviates: rat striatum, 3H-spiperone 0.2 nM, pH 7.4, 37° C., 15 min, read-out: Ki, 3H-Spip.

Counter-ions that a name gives are not always drawn. Like-named read-outs stand apart in the source and are kept apart here.

T2 sequence (P18901 whole entry): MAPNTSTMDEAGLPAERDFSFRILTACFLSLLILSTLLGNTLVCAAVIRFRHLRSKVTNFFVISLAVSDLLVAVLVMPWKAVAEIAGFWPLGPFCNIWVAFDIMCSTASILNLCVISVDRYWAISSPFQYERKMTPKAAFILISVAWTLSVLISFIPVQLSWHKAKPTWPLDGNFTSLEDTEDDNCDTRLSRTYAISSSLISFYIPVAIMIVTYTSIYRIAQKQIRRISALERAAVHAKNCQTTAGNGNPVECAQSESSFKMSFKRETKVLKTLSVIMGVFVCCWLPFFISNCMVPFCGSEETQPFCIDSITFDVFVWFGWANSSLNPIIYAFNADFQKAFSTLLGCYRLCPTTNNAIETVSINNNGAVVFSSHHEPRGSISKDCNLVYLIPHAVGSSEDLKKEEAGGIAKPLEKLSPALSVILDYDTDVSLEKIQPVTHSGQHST
T1 sequence (P61169 whole entry): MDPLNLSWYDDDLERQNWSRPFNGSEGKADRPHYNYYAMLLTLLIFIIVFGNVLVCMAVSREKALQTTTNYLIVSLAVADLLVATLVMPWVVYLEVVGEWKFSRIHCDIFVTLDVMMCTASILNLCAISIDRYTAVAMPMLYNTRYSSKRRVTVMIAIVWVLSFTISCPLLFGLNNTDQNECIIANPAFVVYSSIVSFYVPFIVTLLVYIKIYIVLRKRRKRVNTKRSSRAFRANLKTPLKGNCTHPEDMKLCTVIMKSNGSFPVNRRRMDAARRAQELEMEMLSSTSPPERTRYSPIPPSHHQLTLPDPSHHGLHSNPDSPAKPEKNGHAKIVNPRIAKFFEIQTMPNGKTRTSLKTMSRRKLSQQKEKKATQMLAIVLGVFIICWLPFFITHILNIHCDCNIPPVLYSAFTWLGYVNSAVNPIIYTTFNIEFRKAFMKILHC

As a reminder, the Ki is the equilibrium dissociation constant of an inhibitor or competing ligand from its target. Regarding `COc1cc2c(cc1O)CCN(C)[C@H]1CCc3ccccc3[C@H]21` (relative stereo) [CH2, 1, trans, HO, CH3O, trans-6,7,7a,8,9,13b-Hexahydro-3-hydroxy-2-methoxy-7-methyl-5H-benzo[d]naphtho[2,1-b]azepine], the Ki on D-2 receptor is greater than 100000 nM.

Regarding `CN1CCc2cc(Cl)c(O)cc2[C@H]2c3ccccc3CC[C@@H]21` (relative stereo) [CH2, 1, trans, Cl, OH, trans-6,7,7a,8,9,13b-Hexahydro-3-chloro-2-hydroxy-7-methyl-5H-benzo[d]naphtho[2,1-b]azepine], the results for the “CAR (MED)” value in assay [1] (po) and in assay [1] (sc) were 30 and 0.3, respectively.

For `COc1cc2c(cc1O)CCN(C)[C@@H]1CCc3ccccc3[C@H]21` (relative stereo) [CH2, 1, cis, HO, CH3O], on D-2 receptor, the Ki is greater than 100000 nM.

On to `Cc1cc2c(cc1O)[C@H]1c3ccccc3CC[C@@H]1N(C)CC2` (relative stereo) [CH2, 1, trans, CH3, OH, trans-6,7,7a,8,9,13b-hexahydro-2-hydroxy-3-methyl-7-methyl-5 H-benzo[d]naphtho[2,1-b]azepine], for which the Ki on D-2 receptor amounted to 7200 nM; at dopamine D-1 receptor (setting [3]), 119 nM.

On to `COc1cc2c(cc1O)CCN(C)[C@H]1CCCc3ccccc3[C@H]21` (relative stereo) [CH2, 2, trans, HO, CH3O], for which the Ki at D-2 receptor (setting [4]) is greater than 100000 nM; on dopamine D-1 receptor (setting [3]) it was 7730 nM. For the same molecule, the “CAR (MED)” value in assay [1] (sc) came to 10.

In general, ED50 refers to the midpoint of the dose-response relation. For the molecule `CN1CCc2cc(Cl)c(O)cc2C2c3ccccc3CCC21` (stereo not shown) [Compound A, 6,7,7a,8,9,13b-hexahydro-3-chloro-2-hydroxy-7-methyl-5H-benzo[d]naphtho[2,1-b]azepine], in assay [2], the “MEAN (±SE) NUMBER OF […] 6 HOURS POST-TREATMENT” value is recorded as 23.9 + 7.5 and the “ability to significantly decrease the number of avoidances six hours after dosing (duration)” value is on record as “significant decrease in the number of avoidances (≤0.05)”. Besides, in assay [2] (1 h, administered 60 minutes prior to the test, read-out: ED50), the ED50 is roughly 1.6 mg/kg.

On to `COc1cc2c(cc1O)[C@H]1c3ccccc3CC[C@@H]1N(C)CC2` (relative stereo) [CH2, 1, trans, CH3O, OH, trans-6,7,7a,8,9,13b-Hexahydro-2-hydroxy-3-methoxy-7-methyl-5H-benzo[d]naphtho[2,1-b]azepine], for which the values for the Ki on D-2 receptor and at dopamine D-1 receptor were 2500 nM and 23 nM, respectively. Besides, the figures for the “CAR (MED)” value in assay [1] (po) and in assay [1] (sc) were 30 and 0.3-1, respectively.

Regarding `CN1CCc2cc(Cl)c(N)cc2[C@H]2c3ccccc3CC[C@@H]21` (relative stereo) [CH2, 1, trans, Cl, NH2], the values for the Ki at D-2 receptor (setting [4]) and on dopamine D-1 receptor were 4170 nM and 70 nM, respectively. Further, the “CAR (MED)” value in assay [1] (po) worked out at 3.

Consider `CN1CCc2ccc(O)cc2[C@@H]2c3ccccc3OC[C@H]21` (relative stereo) [O, 1, trans, H, OH, trans-6,6a,7,8,9,13b-Hexahydro-7-methyl-[1]benzopyrano[4,3-a][3]benzazepin-12-ol], for which the Ki at dopamine D-1 receptor (setting [3]) came out at 121 nM.

For the molecule `CN1CCc2cc(Cl)c(O)cc2[C@@H]2c3ccccc3C[C@H]21` (relative stereo) [CH2, 0, trans, Cl, OH, trans-5,6,7,7a,8,12b-Hexahydro-2-hydroxy-3-chloro-7-methyl-benz[d]indeno[2,1-b]azepine], the Ki on D-2 receptor (setting [4]) was 2600 nM; on dopamine D-1 receptor, 10 nM.

Turning to `CN1CCc2cc(Cl)c(O)cc2[C@H]2c3ccccc3CC[C@@H]21` [CH2, 1, 7b(R):7a(S)(-), Cl, OH, (-)-trans-6,7,7a,8,9,13b-Hexahydro-3-chloro-2-hydroxy-7-methyl-5H-benzo[b]naphtho[2,1-b]azepine], the “CAR (MED)” value in assay [1] (po) was 30.

Consider `COc1cc2c(cc1O)[C@H]1c3ccccc3CCC[C@@H]1N(C)CC2` (relative stereo) [CH2, 2, trans, CH3O, OH], for which the Ki on D-2 receptor (setting [4]) was greater than 100000 nM; on dopamine D-1 receptor (setting [3]), 292 nM. The “CAR (MED)” value in assay [1] (sc) turned out to be 10.

Turning to `CN1CCc2cc(Cl)c(O)cc2[C@@H](c2ccccc2)C1` [Compound B, (d)-7-chloro-8-hydroxy-3-methyl-1-phenyl-2,3,4,5-tetrahydro-1h-3-benzazepine maleate, reference compound], in assay [2], the “MEAN (±SE) NUMBER OF […] 6 HOURS POST-TREATMENT” value is given as 59.7 + 0.3 and the “ability to significantly decrease the number of avoidances six hours after dosing (duration)” value was “inactive”. This molecule also gave an ED50 in assay [2] (0.5 h) of 2.4 mg/kg.

For `COc1cc2c(cc1O)[C@H]1c3ccccc3CC[C@H]1N(C)CC2` (relative stereo) [CH2, 1, cis, CH3O, OH], the Ki at D-2 receptor is greater than 100000 nM; on dopamine D-1 receptor (setting [3]), 6450 nM.

Regarding `CN1CCc2ccc(O)cc2[C@H]2c3ccccc3CC[C@@H]21` (relative stereo) [CH2, 1, trans, H, OH, trans-6,7,7a,8,9,13b-Hexahydro-2-hydroxy-7-methyl-5H-benzo[d]naphtho[2,1-b]azepine], the figures for the Ki at D-2 receptor (setting [4]) and at dopamine D-1 receptor were 3500 nM and 80 nM, respectively.

Take `CN1CCc2cc(Cl)c(O)cc2[C@@H]2c3ccccc3CC[C@H]21` [CH2, 1, 7b(S):7a(R)(+), Cl, OH, (+)-trans-6,7,7a,8,9,13b-hexahydro-3-chloro-2-hydroxy-7-methyl-5H-benzo[d]naphtho[2,1-b]azepine]: in assay [1] (po), the “CAR (MED)” value is listed as greater than 30.

The values above are taken from US4973586A, “Fused benzazepines, compositions of, and medical use thereof” (Schering Corporation, priority 1988, dated 1990).
